Measurements from paper PMC8158687, “Xanthones Active against Multidrug Resistance and Virulence Mechanisms of Bacteria” (Antibiotics, 2021).

Tests used:
S. aureus 272123 [1] = experiment: Efflux pump inhibition assay (real-time ethidium bromide accumulation); type: cell-based, Staphylococcus aureus; settings: compound 50 µM, EB 1 µg/mL, minute 60
Procedure: Compounds 1–20 were assessed for their capability of modulating ethidium bromide (EB) accumulation on two resistant strains. […] However, norA is a core gene of the S. aureus as a species, which means that the NorA pump occurs in all S. aureus strains.
(§1) Salmonella enterica serovar Typhimurium SE03, was used as a Gram-negative bacterium. This strain has a deletion of the acrA gene, which was predicted with the least affinity for the compounds. The aim of these studies was to perform a first screening of these compounds and their ability to modulate the efflux of EB. […] The relative fluorescence index (RFI) was calculated based on the means of relative fluorescence units, depicted in Table 2.
(§2) Compounds 1–20 were evaluated for their ability to inhibit efflux pumps in SE03 and S. aureus 272123 strains, through the real-time fluorimetry, monitoring the intracellular accumulation of EB, an efflux pump substrate. This was determined by the automated method using a CLARIOstar Plus plate reader (BMG Labtech, Ortenberg, Germany). Reserpine and CCCP were applied at 25 µM as positive controls, and the solvent DMSO was applied at 1% v/v. The bacterial strains were incubated in an appropriate culture media (TSB—S. aureus 272123; LB-B—SE03) at 37 °C until they reached an optical density (OD) between 0.4 and 0.6 at λ = 600 nm. The culture was centrifuged at 13,000× g for 3 min, and the pellet washed and resuspended with PBS. The suspension was centrifuged again in the same conditions and resuspended in PBS. The compounds were applied at 50 µM in a solution of a non-toxic concentration of EB (1 µg/mL) in PBS. Then, 50 µL of this solution were transferred into a 96-well black microtiter plate (Greiner Bio-One Hungary Kft, Mosonmagyaróvár, Fertősor, Hungary), and 50 µL of bacterial suspension (OD600 0.4–0.6) were added to each well. The plates were placed into the CLARIOstar plate reader, and the fluorescence was monitored at excitation and emission wavelengths of 530 nm and 600 nm every minute for one hour on a real-time basis. From the real-time data, the activity of the compounds, namely the RFI of the last time point (minute 60) of the EB accumulation assay, was calculated according to the following formula:(1) RFI=RFtreated−RFuntreated/RFuntreated where RFtreated is the relative fluorescence (RF) at the last time point of EB accumulation curve in the presence of the compound, and RFuntreated is the RF at the last time point of the EB accumulation curve of the untreated control, having only the solvent (DMSO) control. The accumulation curves were designed using Microsoft Excel®.

[2] = tested on: SE03 (acrA gene-inactivated Salmonella enterica serovar Typhimurium SL1344); experiment: as above; type: cell-based; settings: compound 50 µM, EB 1 µg/mL, minute 60
Procedure: as §1, §2

S. aureus ATCC 29213 = experiment: Inhibition of biofilm formation (crystal violet); type: cell-based, Staphylococcus aureus; settings: half the MIC, or 100 µM if MIC >100 µM, 48 h, 30 °C
[3] = tested on: Chromobacterium violaceum wild type 85 (wt85); experiment: Quorum sensing inhibition assay (disk, pigment production); type: cell-based; settings: read-out: Quorum Sensing Inhibition (mm) ± SD
Description: (§3) The sensor strain Chromobacterium violaceum CV026 and the acyl-homoserine lactones (AHLs) producer strain Sphingomonas paucimobilis Ezf 10-17 (EZF) were inoculated as parallel lines, and the AHL producers, Chromobacterium violaceum wild type 85 (wt85) and Serratia marcescens AS-1 were inoculated as a single line.
(§4) For the QS tests, all the bacteria used were Gram-negative. The bacteria used were Chromobacterium violaceum wild type 85 (wt85), characterized by the AHL signal molecule-mediated production of the purple violacein pigment, capable of endogenous QS-signal molecule production (N-hexanoyl-L-HSL), C. violaceum CV026 (CV026), a Tn5 transposase-mutant, AHL-signal molecule indicator strain (produces purple violacein pigment in the presence of AHL), which is incapable of endogenous QS-signal molecule-production, but useful in the detection of external stimuli, Sphingomonas paucimobilis Ezf 10-17 (EZF), AHL-producing-strain (used with C. violaceum CV026), and Serratia marcescens AS-1, characterized by the AHL signal molecule-mediated production of the orange–red pigment prodigiosin (2-methyl-3-pentyl-6-methoxyprodigiosin), capable of endogenous QS-signal molecule production (N-hexanoyl-L-HSL), were applied.
(§5) The QS inhibitory effect of the compounds was examined on the EZF and the sensor CV026 strains, on the wt85 strain, and on S. marcescens, for 4, 5, 11, 12, 16, 19, and 20. The method used was the parallel inoculation method, where pair combinations of the used sensor strain CV026 and the N-acyl-homoserine lactone (AHL)-producing strain EZF were inoculated directly onto the LB*-A agar surface in parallel, at an approximate distance of 5 mm from each other. S. marcescens AS-1 and wt85 were inoculated as a single line. Filter paper disks (7 mm in diameter) were placed on the center of the inoculated line(s) and impregnated with 8 µL of a solution of 10 mM of the compounds. […] The agar plates were incubated at room temperature (20 °C) for 24–48 h. The QS inhibition was accessed visually, through the inhibition of pigment production. The discolored, but intact, bacterial colonies were measured with a ruler.

Serratia marcescens AS-1 = experiment: as above; type: cell-based; settings: AS1, read-out: Quorum Sensing Inhibition (mm) ± SD
Description: as §3, §4, §5

[4] = tested on: EZF + CV026 (Sphingomonas paucimobilis Ezf 10-17 + Chromobacterium violaceum CV026); experiment: Quorum sensing inhibition assay (parallel inoculation, pigment production); type: cell-based; settings: read-out: Quorum Sensing Inhibition (mm) ± SD
Description: as §3, §4, §5

Cytotoxicity assay (MTT) = type: cell-based, mouse; settings: mouse, NIH/3T3 mouse fibroblast cells, 24 h, MTT, read-out: Cytotoxicity IC50 (µM) ± SD
Procedure: (§6) In order to apply efflux pump inhibitors to treat patients, several issues should be addressed.
(§7) Mouse fibroblasts (NIH/3T3, ATCC CRL-1658TM) were cultivated in DMEM (Gibco 52100-039) and supplemented with 10% heat-inactivated fetal bovine serum (Biowest, VWR International Kft, Debrecen, Hungary), 2 mM of L-glutamine, 1 mM Na pyruvate, 100 U/L and 10 mg/L penicillin/streptomycin mixture (Sigma-Aldrich Chemie GmbH, Steinheim, Germany), respectively, and 0.1% nystatin (8.3 g/L in ethylene glycol). The adherent cells were detached using a combination of 0.25% Trypsin–Versene (EDTA) solution for 5 min at 37 °C. Before each cytotoxicity assay using this cell line, cells were seeded in untreated 96-well flat-bottom microtiter plates, following a 4-h incubation period in a humidified atmosphere (5% CO2, 95% air) at 37 °C [60].
(§8) The cytotoxicity of 4, 12, 16, 19, and 20 was assessed in NIH/3T3 cells. The compounds were added to the cells distributed into 96-well flat bottom microtiter plates at concentrations of […] and initially incubated for 24 h, after which a solution of MTT in PBS was added to each well and incubated for another 4 h. The concentrations used were the same as in the MIC assay. After this, 100 μL of SDS (10% in a 0.01 M HCl solution) were added to each well and incubated overnight at 37 °C. Doxorubicin was used as the positive control. Cell growth was determined in quadruplicate by measuring OD at λ = 540 nm (reference 630 nm) in a Multiscan EX ELISA reader (Thermo Labsystems, Cheshire, WA, USA). The percentage of inhibition of cell growth was determined according to the equation: (2) 100−(ODsample−ODmedium control/ODcell control−ODmedium control)×100

[5] = tested on: NIH/3T3 mouse fibroblast cells; experiment: Cytotoxicity assay (MTT); type: cell-based
Procedure: as §6, §7, §8

[6] = tested on: extended-spectrum β-lactamase producing strain; parameters: method as in PMID 32455828; settings: previous results; ref [14]; cited from earlier work
S. aureus 272123 [7] = experiment: Inhibition of biofilm formation (crystal violet); type: cell-based, Staphylococcus aureus; settings: half the MIC, or 100 µM if MIC >100 µM, 48 h, 30 °C
Procedure: The biofilm inhibition, presented in percentages (%), was calculated based on the mean of absorbance units.
The bacterial strains used were the Gram-positive S. aureus ATCC 25923 and S. aureus 272123. The detection of the biofilm formation was possible with the use of the dye crystal violet (CV; 0.1% v/v). The initial inoculum was incubated in TSB overnight, and then diluted to an OD600 of 0.1. Then, the bacterial suspension was added to 96-well microtiter plates and the compounds were added at half the MIC. […] The final volume in each well was 200 µL. […] The plates were incubated at 30 °C for 48 h, with gentle stirring (100 rpm). After this incubation period, the TSB medium was discarded, and the plates were washed with tap water to remove unattached cells. Afterwards, 200 µL of a 0.1% v/v CV solution were added to the wells and incubated for 15 min at room temperature. Then, the CV solution was removed from the wells, and the plates were washed again with tap water, and 200 µL of a 70% ethanolic solution were added to the wells. The biofilm formation was determined by measuring the OD600 using a Multiscan EX ELISA plate reader (Thermo Labsystems, Cheshire, WA, USA). The anti-biofilm effect of the compounds was expressed as the percentage (%) of decrease in biofilm formation.

In the case of `O=c1c2cc(O)ccc2oc2cccc(O)c12` [Compound 4], the “RFI ± SD (relative fluorescence index)” value (S. aureus 272123 [1]) is reported as 0.13 ± 0.08 ^2, the “RFI ± SD (relative fluorescence index)” value [2] is reported as 2.90 ± 0.71 ^7 and the “Inhibition of Biofilm Formation (%) ± SD” value (S. aureus ATCC 29213) is reported as 0 ^1%. It also gave a zone of inhibition at 10000 µM [3] of 0 mm, a zone of inhibition at 10000 µM (Serratia marcescens AS-1) of 0 mm and a zone of inhibition at 10000 µM [4] of 0 mm. For the same molecule, the IC50 at 24 h (Cytotoxicity assay (MTT)) was greater than 100 µM, the “Cytotoxicity (in words)” value [5] was “no cytotoxicity was observed” and the “activity against extended-spectrum β-lactamase producing strain (in words)” value [6] was “not active”.
In the case of `COc1cc(CBr)c2c(=O)c3ccccc3oc2c1OC` [Compound 12], the “RFI ± SD (relative fluorescence index)” value (S. aureus 272123 [1]) is reported as 0.11 ± 0.30 ^4, the “RFI ± SD (relative fluorescence index)” value [2] is reported as 1.75 ± 1.57 ^9 and the “Inhibition of Biofilm Formation (%) ± SD” value (S. aureus ATCC 29213) is reported as 0 ^1%. For the same molecule, the “Inhibition of Biofilm Formation (%) ± SD” value (S. aureus 272123 [7]) was 6.27 ± 1.41 ^3%, the zone of inhibition at 10000 µM [3] was 0 mm and the zone of inhibition at 10000 µM (Serratia marcescens AS-1) was 0 mm. For the same molecule, the zone of inhibition at 10000 µM [4] was 30 ± 0.5 mm, the IC50 at 24 h (Cytotoxicity assay (MTT)) was 54.6 ± 5.3 µM and the “Cytotoxicity (in words)” value [5] was “moderate cytotoxicity”.
With `COc1ccc2c(=O)c3c(C=O)cc(OC)c(OC)c3oc2c1` [Compound 16] the “RFI ± SD (relative fluorescence index)” value (S. aureus 272123 [1]) was 5.49 ± 8.04 ^5, the “RFI ± SD (relative fluorescence index)” value [2] was 0.13 ± 0.15 ^10 and the “Inhibition of Biofilm Formation (%) ± SD” value (S. aureus ATCC 29213) was 0 ^2%. The “Inhibition of Biofilm Formation (%) ± SD” value (S. aureus 272123 [7]) was 58.98 ± 12.00 ^4%, the zone of inhibition at 10000 µM [3] was 0 mm and the zone of inhibition at 10000 µM (Serratia marcescens AS-1) was 0 mm. For the same molecule, the zone of inhibition at 10000 µM [4] was 42 ± 0.8 mm, the IC50 at 24 h (Cytotoxicity assay (MTT)) was 26.9 ± 5.87 µM and the “Cytotoxicity (in words)” value [5] was “moderate cytotoxicity”.
